Test results from paper PMC2967433 (Bioconjugate chemistry, 2010).

Legend:
[1] = biological target: T1, FK506 Binding Protein 12 kDa (FKBP12) (Homo sapiens, UniProt P62942); test: TR-FRET tracer binding
[2] = biological target: T1, FK506 Binding Protein 12 kDa (FKBP12); test: TR-FRET competition with fluorescein-labeled SLF

T1 sequence (P62942 2-108): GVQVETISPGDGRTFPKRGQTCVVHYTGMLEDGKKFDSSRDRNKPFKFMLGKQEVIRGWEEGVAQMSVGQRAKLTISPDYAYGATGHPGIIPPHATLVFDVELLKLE

Row | Compound | Kd [1] | IC50 [2]
1 | SLF-Fl | 30 nM | –
2 | CCC(C)(C)C(=O)C(=O)N1CCCC[C@H]1C(=O)O[C@H](CCc1ccc(OC)c(OC)c1)c1cccc(OCC(=O)O)c1 [SLF-OH] | – | 200 nM
